Measurements from BindingDB's records for doi:10.1111/j.1747-0285.2007.00608.x (National Institute of Pharmaceutical Education and Research, 2008).

target: T1, UDP-3-O-acyl-N-acetylglucosamine deacetylase (Pseudomonas aeruginosa (strain ATCC 15692 / DSM 22644 / CIP 104116 / JCM 14847 / LMG 12228 / 1C / PRS 101 / PAO1), UniProt P47205); test: Inhibition Assay
T1 sequence (P47205 whole entry): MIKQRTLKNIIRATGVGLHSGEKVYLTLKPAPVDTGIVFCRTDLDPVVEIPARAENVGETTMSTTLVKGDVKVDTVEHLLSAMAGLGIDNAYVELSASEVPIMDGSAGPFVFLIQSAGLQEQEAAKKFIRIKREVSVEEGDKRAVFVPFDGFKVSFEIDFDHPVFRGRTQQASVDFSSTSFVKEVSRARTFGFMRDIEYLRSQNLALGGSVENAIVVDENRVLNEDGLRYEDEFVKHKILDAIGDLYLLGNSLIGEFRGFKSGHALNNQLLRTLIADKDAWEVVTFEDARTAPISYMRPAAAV
Excerpt: The LpxC inhibitors were used as the reference for development of flexible alignment-based pharamcophore, pharamcophore mapping study.

| SMILES | IC50 |
| --- | --- |
| O=C(N[C@@H](CO)C(=O)NO)c1n[nH]c2ccccc12 [LpxC Inhibitor, L5] | 13 µM |
| CCCCn1nc(C2=N[C@@H](C(=O)NO)CO2)c2ccccc21 [LpxC Inhibitor, L11] | 10 µM |
| CCCc1cc(C2=N[C@H](C(=O)NO)CS2)cc(OC(F)(F)F)c1OC [LpxC Inhibitor, L14] | 17.8 µM |
| Cc1ccc(C2=N[C@H](C(=O)NO)CS2)cc1 [LpxC Inhibitor, L18] | 38.5 µM |
| C=CCOc1ccc(C2=N[C@@H](C(=O)NO)CO2)cc1C(F)(F)F [LpxC Inhibitor, L4] | 2.2 µM |
| CN(C)c1ccc(C2=N[C@@H](C(=O)NO)CO2)cc1 [CS273] | 4.9 µM |
| COc1ccc(C2=N[C@H](C(=O)NO)CO2)cc1OC(F)(F)F [LpxC Inhibitor, L15] | 0.16 µM |
| CCCCn1nc2ccccc2c1C1=N[C@@H](C(=O)NO)CO1 [LpxC Inhibitor, L12] | 12 µM |

The remaining lines, values ahead:

| IC50 | SMILES |
| --- | --- |
| 1.2 µM | Cc1cc(C2=N[C@@H](C(=O)NO)CO2)ccc1F [LpxC Inhibitor, L3] |
| 1 µM | CCOc1cc(C2=N[C@@H](C(=O)NO)CO2)ccc1F [LpxC Inhibitor, L10] |
| > 50 µM | CCCc1cc(C(=O)N[C@@H](CO)C(=O)NO)cc(OC(C)(C)C)c1OC [LpxC Inhibitor, L13] |
| > 30 µM | O=C(NO)[C@@H]1COC(c2ccc(O)cc2)=N1 [LpxC Inhibitor, L17] |
| 25 µM | O=C(NO)[C@H]1COC(c2cc(F)cc(C(F)(F)F)c2)=N1 [LpxC Inhibitor, L7] |
| 0.5 µM | CCCc1cc(C2=N[C@@H](C(=O)NO)CO2)cc(OC(F)(F)F)c1OC [LpxC Inhibitor, L1] |
| 5.5 µM | O=C(NO)[C@H]1COC(c2n[nH]c3ccccc23)=N1 [LpxC Inhibitor, L9] |
| 0.25 µM | O=C(NO)[C@H]1COC(c2ccc(OCc3cccc(F)c3)c(C(F)(F)F)c2)=N1 [LpxC Inhibitor, L6] |
| 1 µM | O=C(NO)[C@@H]1COC(c2ccc(OCc3cccc([N+](=O)[O-])c3)cc2)=N1 [LpxC Inhibitor, L16] |
| 0.56 µM | O=C(NO)[C@H]1COC(c2ccc(COc3cccc([N+](=O)[O-])c3)cc2)=N1 [LpxC Inhibitor, L2] |
